Experimental data taken from patent US5852007A, “Cysteine and serine protease inhibitors containing D-amino acid at the P2 position, methods of making same, and methods of using same” (priority 1997, dated 1998).
Square brackets hold non-standard residues; d marks the D form. Peptide text beside a SMILES is read from it. * marks the point of attachment. dPhg = N[C@@H](C(=O)O)c1ccccc1; Tle = CC(C)(C)[C@H](N)C(=O)O; Tos = Cc1ccc(S(=O)(=O)*)cc1; dΔPro = O=C(O)[C@H]1C=CCN1; Bn = c1ccc(C*)cc1; Ms = CS(=O)(=O)*

Tests used:
Format in all cases: biochemical
[1] = molecular target: T1, Recombinant human calpain I (Homo sapiens, UniProt P07384); assay: Inhibition of calpain I activity; details: Table III
T1 construct: made in house
T1 sequence (P07384 1-714): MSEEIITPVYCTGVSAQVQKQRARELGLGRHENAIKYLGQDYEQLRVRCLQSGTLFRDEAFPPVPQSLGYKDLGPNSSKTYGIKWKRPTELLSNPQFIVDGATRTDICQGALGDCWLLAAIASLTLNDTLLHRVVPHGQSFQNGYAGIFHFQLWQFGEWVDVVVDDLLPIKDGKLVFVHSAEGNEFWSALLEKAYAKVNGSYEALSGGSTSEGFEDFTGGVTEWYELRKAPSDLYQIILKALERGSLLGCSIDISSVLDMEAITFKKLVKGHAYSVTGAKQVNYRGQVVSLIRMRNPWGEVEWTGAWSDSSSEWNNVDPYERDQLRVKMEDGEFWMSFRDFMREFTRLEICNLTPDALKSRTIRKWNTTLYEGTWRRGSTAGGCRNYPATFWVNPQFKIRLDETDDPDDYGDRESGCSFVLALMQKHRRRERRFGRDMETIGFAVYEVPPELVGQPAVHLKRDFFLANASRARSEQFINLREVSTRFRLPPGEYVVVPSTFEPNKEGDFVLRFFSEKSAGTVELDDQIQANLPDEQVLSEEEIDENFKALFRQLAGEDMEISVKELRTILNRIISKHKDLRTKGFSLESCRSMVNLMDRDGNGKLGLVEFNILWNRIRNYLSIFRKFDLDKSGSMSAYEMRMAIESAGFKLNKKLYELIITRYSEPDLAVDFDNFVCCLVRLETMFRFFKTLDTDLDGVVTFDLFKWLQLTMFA
Experimental: To evaluate inhibitory activity, stock solutions (40 times concentrated) of exemplary compounds of the invention were prepared in 100% anhydrous DMSO and 5 μL of each inhibitor preparation were aliquoted into each of three wells of a 96-well plate. Recombinant human calpain I, prepared by the method of Meyer et al. (Biochem. […] To start the reaction, 20 μL of 50 mM CaCl2 in assay buffer was added to all wells of the plate, excepting three, which were used as background signal baseline controls. Substrate hydrolysis was monitored every 5 minutes for a total of 30 minutes. […] Inhibition of calpain I activity was calculated as the percent decrease in the rate of substrate hydrolysis in the presence of inhibitor (VI) relative to the rate in its absence (VO). Comparison between VO and VI was made within the linear range for substrate hydrolysis. For screening, compounds were tested at 10, 1.0, and 0.1 μM. […] The results were plotted as % inhibition versus log inhibitor concentration and the IC50 was calculated from linear regression of the data. Apparent second order rate constants were determined from analysis of reaction progress curves under pseudo-first order conditions. Each determination represents the means of three or more independent single cuvette analyses continually monitored via a Perkin-Elmer LS50B spectrofluorimeter. The rate of inhibition of hydrolysis was obtained by fitting the curve to the exponential equation (1): […]

cathepsin B = molecular target: T2, cathepsin B (Homo sapiens, UniProt P07858); assay: Inhibition of cathepsin B; details: Table III; for inhibition at 1 µM: read-out: Cat B % I @ 1 uM; for IC50: read-out: Cat B IC50
T2 construct: purchased Calbiochem 219364
Experimental: (§1) Additionally,the order of reagents added to the plate was altered because both enzymes are constitutively active. Following inhibitor addition to the plates, appropriate 2× concentrated stock dilutions of the enzyme preparations were made in assay buffer and 100 μl added to each well. The assay was initiated by addition of 100 μl of 2× concentrated stock dilution of substrate in assay buffer.

cathepsin L = molecular target: T3, cathepsin L (Homo sapiens, UniProt P07711); assay: Inhibition of cathepsin L; details: Table III; 1 uM; read-out: Cat L % I @ 1 uM
T3 construct: purchased Calbiochem 219402
T3 sequence (P07711 114-288 limits assumed): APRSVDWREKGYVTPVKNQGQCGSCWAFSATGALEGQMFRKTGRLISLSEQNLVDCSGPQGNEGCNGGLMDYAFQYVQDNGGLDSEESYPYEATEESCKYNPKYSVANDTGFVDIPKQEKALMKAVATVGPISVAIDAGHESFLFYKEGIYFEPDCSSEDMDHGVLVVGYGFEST
T3 sequence (P07711 292-333 limits assumed): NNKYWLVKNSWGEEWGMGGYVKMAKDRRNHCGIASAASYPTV
Experimental: as §1

thrombin = molecular target: T4, thrombin (Homo sapiens, UniProt P00734); assay: Inhibition of thrombin; details: Table III, 10 uM; for inhibition at 10 µM: read-out: Thrombin % I @ 10 uM
T4 construct: purchased Sigma Chem. Co. T-7009

α-chymotrypsin = molecular target: T5, α-chymotrypsin (Bos taurus, UniProt P00766); assay: Inhibition of α-chymotrypsin; details: Table III, 10 uM; for inhibition at 10 µM: read-out: Chymotrypsin % I @ 10 uM
T5 construct: purchased Sigma Chem. Co. C-3142
Experimental: Additionally, because α-chymotrypsin is not a calcium sensitive enzyme and is constitutively active, following addition of inhibitor stocks to the 96 well plates, 100 μl of a 2-fold concentrated stock of enzyme in dilution buffer was first added and the reaction started by addition of 100 μl of a 2-fold concentrated stock of substrate in assay buffer. Substrate hydrolysis was monitored every 5 minutes up to 30 minutes using a Fluoroskan II ([…]).

Row | SMILES | IC50 [1] | inhibition at 0.1 µM ([1]; 0.1 uM) | inhibition at 1 µM (cathepsin B; 1 uM) | inhibition at 1 µM (cathepsin L) | inhibition at 10 µM (thrombin) | inhibition at 10 µM (α-chymotrypsin) | IC50 (cathepsin B) | Calpain % I @ 0.1 uM ([1]; 0.1 uM) | Cat B % I @ 1 uM (cathepsin B; 1 uM) | Thrombin % I @ 10 uM (thrombin) | Chymotrypsin % I @ 10 uM (α-chymotrypsin)
1 | Cc1ccc(S(=O)(=O)N[C@H](Cc2ccccc2)C(=O)N[C@H](C=O)Cc2ccccc2)cc1 [Compound 61] (Tos-[dF]-Phe-aldehyde) | 22 nM | 83% | 100% | 100% | 0% | 0% | – | – | – | – | –
2 | C[C@H](OCc1ccccc1)[C@@H](NS(C)(=O)=O)C(=O)N[C@H](C=O)Cc1ccccc1 [Compound 43] (Ms-[dT](Bn)-Phe-aldehyde) | 12 nM | 95% | 98% | 68% | 0% | 3% | 58 nM | – | – | – | –
3 | O=C[C@H](Cc1ccccc1)NC(=O)[C@@H](Cc1c[nH]c2ccccc12)NS(=O)(=O)c1ccccc1 [Compound 71] | 31 nM | 92% | 100% | 100% | 11% | 5% | – | – | – | – | –
4 | CS(=O)(=O)N[C@H](COCc1ccccc1)C(=O)N[C@@H](Cc1ccccc1)C(O)S(=O)(=O)O (some centres unmarked) [Compound 128] | 8 nM | 89% | 99% | 100% | 0% | 1% | – | – | – | – | –
5 | CC(=O)Nc1ccc(S(=O)(=O)N2CCC[C@@H]2C(=O)N[C@H](C=O)Cc2ccccc2)cc1 [Compound 103] | 71 nM | 37% | 40% | 56% | 3% | 26% | – | – | – | – | –
6 | CS(=O)(=O)N1Cc2ccccc2CC1C(=O)N[C@H](C=O)Cc1ccccc1 (single isomer, unassigned) [Compound 95] | 278 nM | – | – | 100% | – | – | – | 17% | 38% | 1% | 0%
7 | CS(=O)(=O)N[C@@H](C(=O)N[C@H](C=O)Cc1ccccc1)c1ccccc1 [Compound 76] (Ms-[dPhg]-Phe-aldehyde) | 13 nM | 88% | 79% | 90% | 1% | 30% | 250 nM | – | – | – | –
8 | CS(=O)(=O)N[C@H](COCc1ccccc1)C(=O)N[C@H](C=O)CCCCNS(=O)(=O)c1ccccc1 [Compound 122] | 3 nM | 98% | 100% | 100% | 0% | 13% | – | – | – | – | –
9 | CC(C)(C)[C@@H](C=O)NC(=O)[C@@H](COCc1ccccc1)NS(C)(=O)=O [Compound 111] (Ms-[dS](Bn)-[Tle]-aldehyde) | – | 27% | 10% | 91% | 0% | 16% | – | – | – | – | –
10 | CCNC(=O)C(=O)[C@H](Cc1ccccc1)NC(=O)[C@@H](COCc1ccccc1)NS(C)(=O)=O [Compound 81] | 180 nM | 18% | 73% | 100% | 0% | 2% | – | – | – | – | –
11 | CN([C@H](COCc1ccccc1)C(=O)N[C@H](C=O)Cc1ccccc1)S(C)(=O)=O [Compound 83] | 520 nM | 37% | 62% | 53% | 7% | 0% | – | – | – | – | –
12 | CS(=O)(=O)N[C@H](COCc1ccccc1)C(=O)N[C@H](C=[N+]([O-])Cc1ccccc1)Cc1ccccc1 [Compound 117] | – | 21% | 95% | 100% | 0% | 0% | – | – | – | – | –
13 | Cc1ccc(S(=O)(=O)N2CCC[C@@H]2C(=O)N[C@H](C=O)Cc2ccccc2)cc1 [Compound 120] (Tos-[dP]-Phe-aldehyde) | 14 nM | 87% | 50% | 65% | 0% | 12% | – | – | – | – | –
14 | Cc1ccc(S(=O)(=O)N2CC=C[C@@H]2C(=O)N[C@H](C=O)Cc2ccccc2)cc1 [Compound 130] (Tos-[dΔPro]-Phe-aldehyde) | 10 nM | 90% | 62% | 97% | 9% | 0% | – | – | – | – | –
15 | CC(=O)N[C@H](COCc1ccccc1)C(=O)N[C@H](C=O)Cc1ccccc1 [Compound 42] | 17 nM | 87% | 90% | 96% | 7% | 14% | – | – | – | – | –
16 | O=C[C@H](Cc1ccccc1)NC(=O)[C@@H](COCc1ccccc1)NC(=O)c1ccccc1 [Compound 44] | 280 nM | 29% | 62% | 100% | 7% | 0% | – | – | – | – | –
17 | CN(C)S(=O)(=O)N[C@H](COCc1ccccc1)C(=O)N[C@H](C=O)Cc1ccccc1 [Compound 47] | 9 nM | 91% | 96% | 98% | 6% | 2% | – | – | – | – | –
18 | Cc1ccc(S(=O)(=O)N2C[C@@H](N=[N+]=[N-])C[C@@H]2C(=O)N[C@H](C=O)Cc2ccccc2)cc1 [Compound 114] | – | 85% | 24% | 100% | 3% | 9% | – | – | – | – | –
19 | CCOC(OCC)[C@H](Cc1ccccc1)NC(=O)[C@@H](COCc1ccccc1)NS(C)(=O)=O [Compound 134] | – | 0% | 19% | 98% | 0% | 10% | – | – | – | – | –
20 | CS(=O)(=O)NC(CCSCc1ccccc1)C(=O)N[C@H](C=O)Cc1ccccc1 (single isomer, unassigned) [Compound 107] | 67 nM | 63% | 97% | 100% | – | – | – | – | – | 2% | 11%
21 | CC(C)(C)OC(=O)N[C@H](COCc1ccccc1)C(=O)N[C@H](C=O)Cc1ccccc1 [Compound 82] | – | 4% | 60% | 93% | 6% | 8% | – | – | – | – | –
22 | CS(=O)(=O)N[C@H](COCc1ccccc1)C(=O)N[C@H](C=O)Cc1ccc(OCc2ccccc2)cc1 [Compound 90] (Ms-[dS](Bn)-Tyr(Bn)-aldehyde) | 5 nM | 99% | 100% | 99% | 0% | 0% | – | – | – | – | –
23 | CS(=O)(=O)N[C@H](COCc1ccccc1)C(=O)N[C@H](C=NO)Cc1ccccc1 [Compound 118] | – | 31% | 33% | 99% | 0% | 8% | – | – | – | – | –
